Experimental data: patent US20090032411A1, “METHOD AND SYSTEM FOR DETECTING PHARMACOLOGICALLY ACTIVE SUBSTANCES BY MEASURING MEMBRANE CURRENTS WITH EXTRACELLULAR SENSORS” (Max-Planck-Gesellschaft zur Foerderung Der Wissenschaften …, priority 2006, published 2009)
Entries after “also recorded” stand apart in the source; their conditions may differ.

How the values were obtained:
Assay type in all cases: cell-based
[1] = molecular target: T1, voltage-gated potassium channel Kv1.3 (Homo sapiens, UniProt P22001); assay: FET recording of the extracellular (junction) voltage signal of HEK293 cells doubly transfected with 5-HT3A and Kv1.3, blocker of Kv1.3
T1 construct: expressed in transfected cells; host or cells: HEK293
Method: (§1) HEK293 cells were cultured in plastic dishes (Becton Dickinson, No. 353001), in Dulbecco's modified Eagle's medium (GIBCO, No. 21885-025), supplemented with 10% heat-inactivated fetal bovine serum. The cDNA of the human ligand-gated ion channel 5-HT3A was purchased from Invitrogen (Ultimate ORF clone collection, HORF01), and subcloned into the expression plasmid pcDNA3 (Invitrogen, No. V790-20), applying standard molecular biology methods. The construction of an expression plasmid for the voltage-gated potassium channel Kv1.3 was as described in J. Kupper: Functional expression of GFP-tagged Kv1.3 and Kv1.4 channels in HEK 293 cells. Eur. J. Neurosci. 10, 3908-12 (1998). The cells were stably transfected with one of the two expression plasmids using Geneticin (GIBCO, No. 11811-064), as the selection antibiotic (500 μg/ml). After generation of stable cell lines, the cells were transiently transfected with the other of the two expression plasmids together with the EGFP-C1 plasmid (BD Biosciences Clontech, No. 632317), which served as control for successful transfection. […]
(§2) Silicon chips as described in M. Voelker, P. Fromherz: Signal transmission from individual mammalian nerve cell to field-effect transistor. […] Cells on transistor gates with the transiently expressed channels were identified by the green EGFP fluorescence. […]

[2] = molecular target: T2, ligand-gated ion channel 5-HT3A (Homo sapiens, UniProt P46098); assay: FET recording of the extracellular (junction) voltage signal of HEK293 cells doubly transfected with 5-HT3A and Kv1.3, ligands of 5-HT3A; conditions: for extracellular voltage signal in the cell-chip junction on application of agonist: agonist 100 μM, cells expressing both 5-HT3A and Kv1.3, FET recording; for effect on the serotonin-induced extracellular voltage signal: tropisetron 1 μM present before and during stimulation with 100 μM serotonin, doubly transfected cell
T2 construct: host or cells: HEK293
T2 sequence (P46098 24-478): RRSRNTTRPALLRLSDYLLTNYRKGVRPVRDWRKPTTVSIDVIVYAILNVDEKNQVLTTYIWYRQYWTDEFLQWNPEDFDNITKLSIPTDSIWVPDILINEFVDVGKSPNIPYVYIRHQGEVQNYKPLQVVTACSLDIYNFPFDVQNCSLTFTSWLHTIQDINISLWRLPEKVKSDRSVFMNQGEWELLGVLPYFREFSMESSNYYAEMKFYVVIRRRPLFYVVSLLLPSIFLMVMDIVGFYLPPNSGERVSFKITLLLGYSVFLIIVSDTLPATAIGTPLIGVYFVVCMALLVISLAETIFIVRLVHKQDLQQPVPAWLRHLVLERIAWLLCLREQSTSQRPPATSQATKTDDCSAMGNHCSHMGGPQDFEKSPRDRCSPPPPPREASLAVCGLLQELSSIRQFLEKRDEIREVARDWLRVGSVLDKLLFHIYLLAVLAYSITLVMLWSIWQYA
Method: HEK293 cells were cultured in plastic dishes (Becton Dickinson, No. 353001), in Dulbecco's modified Eagle's medium (GIBCO, No. 21885-025), supplemented with 10% heat-inactivated fetal bovine serum. The cDNA of the human ligand-gated ion channel 5-HT3A was purchased from Invitrogen (Ultimate ORF clone collection, HORF01), and subcloned into the expression plasmid pcDNA3 (Invitrogen, No. V790-20), applying standard molecular biology methods. The construction of an expression plasmid for the voltage-gated potassium channel Kv1.3 was as described in J. Kupper: Functional expression of GFP-tagged Kv1.3 and Kv1.4 channels in HEK 293 cells. Eur. J. Neurosci. 10, 3908-12 (1998). The cells were stably transfected with one of the two expression plasmids using Geneticin (GIBCO, No. 11811-064), as the selection antibiotic (500 μg/ml). After generation of stable cell lines, the cells were transiently transfected with the other of the two expression plasmids together with the EGFP-C1 plasmid (BD Biosciences Clontech, No. 632317), which served as control for successful transfection. Transfections were done using the Effectene method (Qiagen, No. 301425), at 60-80% confluency.
Silicon chips as described in M. Voelker, P. Fromherz: Signal transmission from individual mammalian nerve cell to field-effect transistor. Small 1, 206-210 (2005) with 128 Field Effect Transistors (FET) in two linear arrays and a culture chamber on top were cleaned, sterilized under UV-light and coated with 10 μg/ml fibronectin (Sigma, No. F2006). Cells were plated on these chips under normal culture conditions one day after transient transfection, and measurements were done one day after plating. Cells on transistor gates with the transiently expressed channels were identified by the green EGFP fluorescence.
During experiments the cells were flushed permanently with standard extracellular solution, consisting of (in mM): KCl 5.4, NaCl 135, CaCl2 1.8, MgCl2 1 Glucose 10, Hepes 5 (pH adjusted to 7.4 with NaOH). The ligands serotonin, CPBG (agonists of 5-HT3A) tropisetron and margatoxin (antagonists of 5-HT3A and Kv1.3, respectively), were obtained from Sigma (No. H9523, C144, T104, M8278), and dissolved in extracellular solution.
Ligand solutions were applied rapidly (ms range), with a double barrelled glass pipette (Theta-Tube), connected to a piezoelectric actuator (Burleigh, LSS-3100). Different ligand solutions were directed to the glass pipette by an eight-channel valve control system (ALA, BPS-8).
During application of ligands, the voltage in the cleft between transfected cells and the chip surface was probed with the gates of Field Effect Transistors under the cells.

[3] = molecular target: T2, ligand-gated ion channel 5-HT3A; assay: FET recording of junction voltage of HEK293 cells expressing only 5-HT3A
Method: as §1, §2

[4] = molecular target: T3, voltage-gated channel Kv1.3 (Homo sapiens, UniProt P22001); assay: FET recording of junction voltage of HEK293 cells expressing only Kv1.3
T3 construct: expressed in transfected cells; host or cells: HEK293
Method: as §1, §2

T1 sequence (P22001 whole entry): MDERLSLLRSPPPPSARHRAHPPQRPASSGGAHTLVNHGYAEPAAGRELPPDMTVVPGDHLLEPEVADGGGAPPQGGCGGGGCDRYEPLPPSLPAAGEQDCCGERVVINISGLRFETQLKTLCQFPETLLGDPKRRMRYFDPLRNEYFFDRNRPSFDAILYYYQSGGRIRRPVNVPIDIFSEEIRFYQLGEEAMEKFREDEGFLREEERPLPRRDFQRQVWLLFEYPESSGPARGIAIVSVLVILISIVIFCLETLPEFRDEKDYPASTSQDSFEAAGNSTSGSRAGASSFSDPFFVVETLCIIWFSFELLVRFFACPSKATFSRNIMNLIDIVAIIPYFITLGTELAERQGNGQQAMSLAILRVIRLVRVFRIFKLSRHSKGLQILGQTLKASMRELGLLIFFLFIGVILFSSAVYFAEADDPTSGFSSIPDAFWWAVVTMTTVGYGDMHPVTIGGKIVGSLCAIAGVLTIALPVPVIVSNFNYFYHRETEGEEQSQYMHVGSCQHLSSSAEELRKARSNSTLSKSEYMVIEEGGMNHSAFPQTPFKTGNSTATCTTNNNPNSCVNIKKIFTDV
T3 sequence (P22001 whole entry): as above

margatoxin (TIINVKCTSPKQCLPPCKAQFGQSAGAKCMNGKCKCYPH; UniProt P40755 1-39, looked up)
effect on the serotonin-induced extracellular voltage signal ([1]; 5 nM margatoxin present during 100 μM serotonin stimulation, doubly transfected cell): The signal was reduced; also recorded: blocked the signal
serotonin-triggered signal after removal of margatoxin (reversibility) ([1]; same cell, after removal of 5 nM margatoxin): A biphasic voltage signal was recovered

NC(N)=NC(N)=Nc1cccc(Cl)c1 [CPBG]
extracellular voltage signal in the cell-chip junction on application of agonist [2]: triggered a biphasic voltage signal; also recorded: caused a biphasic voltage signal

NCCc1c[nH]c2ccc(O)cc12 [serotonin]
voltage signal in the cell-chip junction upon stimulation with serotonin [3]: failed to cause a voltage signal
voltage signal in the cell-chip junction upon stimulation with serotonin [4]: failed to produce a signal
extracellular voltage signal in the cell-chip junction on application of agonist [2]: triggered a biphasic voltage signal; also recorded: Biphasic extracellular voltage signal; also recorded: caused a biphasic voltage signal

CN1[C@@H]2CC[C@H]1C[C@@H](OC(=O)c1c[nH]c3ccccc13)C2 [tropisetron]
effect on the serotonin-induced extracellular voltage signal [2]: blocked the signal
effect on the serotonin-induced extracellular voltage signal ([2]; listed as Tropisetron): The signal was lost
